According to US9453000B2, “Polycyclic compound” (EISAI R&D MANAGEMENT CO., LTD., priority 2007, dated 2016):

System: Aβ42 production in rat primary neuronal culture
Assay: Quantification of Aβ peptide in culture of neurons from rat fetus brain (Aβ ELISA)
Type: cell-based
Details: Primary cortical neuron, 72 h, rat primary cortical neurons (embryonic day 18 Wistar), three days after addition of the compound, Aβx-42 ELISA of medium, read-out: Aβ42 production reducing effect IC50
Procedure: Quantification of Aβ Peptide in Culture of Neurons from Rat Fetus Brain
(1) Rat Primary Neuronal Culture
Primary neuronal cultures were prepared from the cerebral cortex of embryonic day 18 Wistar rats (Charles River Japan, Yokohama, Japan). Specifically, the embryos were aseptically removed from pregnant rats under ether anesthesia. The brain was isolated from the embryo and immersed in an ice-cold L-15 medium (Invitrogen Corp. Cat #11415-064, Carlsbad, Calif., USA, or SIGMA L1518, for example). The cerebral cortex was collected from the isolated brain under a stereoscopic microscope. The cerebral cortex fragments collected were enzymatically treated in an enzyme solution containing 0.25% trypsin (Invitrogen Corp. Cat #15050-065, Carlsbad, Calif., USA) and 0.01% DNase (Sigma D5025, St. Louis, Mo., USA) at 37° C. for 30 minutes to disperse the cells. Here, the enzymatic reaction was stopped by adding inactivated horse serum to the solution. The enzymatically treated solution was centrifuged at 1,500 rpm for five minutes to remove the supernatant. 5 to 10 ml of a medium was added to the resulting cell mass. Neurobasal medium (Invitrogen Corp. Cat #21103-049, Carlsbad, Calif., USA) supplemented with 2% B27 supplement (Invitrogen Corp. Cat #17504-044, Carlsbad, Calif., USA), 25 μM 2-mercaptoethanol (2-ME, WAKO Cat #139-06861, Osaka, Japan), 0.5 mM L-glutamine (Invitrogen Corp. Cat #25030-081, Carlsbad, Calif., USA), and Antibiotics-Antimycotics (Invitrogen Corp. Cat #15240-062, Carlsbad, Calif., USA) was used as the medium (Neurobasal/B27/2-ME). However, the above Neurobasal medium not supplemented with 2-ME (Neurobasal/B27) was used for the assay. The cells were redispersed by mild pipetting of the cell mass to which the medium was added. The cell dispersion was filtered through a 40-μm nylon mesh (Cell Strainer, Cat #35-2340, Becton Dickinson Labware, Franklin Lakes, N.J., USA) to remove the remaining cell mass, and thus a neuronal cell suspension was obtained. The neuronal cell suspension was diluted with the medium and then plated in a volume of 100 μl/well at an initial cell density of 5×10^5 cells/cm^2 in a 96-well polystyrene culture plate pre-coated with poly-L or D-lysine (Falcon Cat #35-3075, Becton Dickinson Labware, Franklin Lakes, N.J., USA coated with poly-L-lysine using the method shown below, or BIOCOAT™ cell environments Poly-D-lysine cell ware 96-well plate, Cat #35-6461, Becton Dickinson Labware, Franklin Lakes, N.J., USA). Poly-L-lysine coating was carried out as follows. 100 μg/ml of a poly-L-lysine (SIGMA P2636, St. Louis, Mo., USA) solution was aseptically prepared with a 0.15 M borate buffer (pH 8.5). 100 μl/well of the solution was added to the 96-well polystyrene culture plate and incubated at room temperature for one or more hours or at 4° C. overnight or longer. The coated 96-well polystyrene culture plate was washed with sterile water four or more times, and then dried or rinsed with, for example, sterile PBS or medium, and used for cell plating. The plated cells were cultured in the culture plate at 37° C. in 5% CO2-95% air for one day. Then, the total amount of the medium was replaced with a fresh Neurobasal™/B27/2-ME medium, and then the cells were cultured for further three days.
The drug was added to the culture plate on Day 4 of culture as follows. The total amount of the medium was removed from the wells, and 180 μl/well of Neurobasal medium not containing 2-ME and containing 2% B-27 (Neurobasal/B27) was added thereto. A solution of the test compound in dimethyl sulfoxide (hereinafter abbreviated as DMSO) was diluted with Neurobasal/B27 at 10-fold of the final concentration. 20 μl/well of the dilution was added to and sufficiently mixed with the medium. The final DMSO concentration was 1% or less. Only DMSO was added to the control group.
The cells were cultured for three days after addition of the compound, and the total amount of the medium was collected. […]

Structure (SMILES): COc1cc(/C=C/c2nc3n(n2)CC[C@H]3c2ccccc2C(F)(F)F)ccc1-n1cnc(C)c1 (single isomer, unassigned) [Example 317, (−)-2-{(E)-2-[3-methoxy-4-(4-methyl-1H-imidazol-1-yl)phenyl]vinyl}-7-(2-trifluoromethylphenyl)-6,7-dihydro-5H-pyrrolo[1,2-b][1,2,4]triazole]
- IC50: 25 nM

Structure (SMILES): COc1nc(/C=C/c2nc3n(n2)CCC(C)N3c2ccccc2C(F)(F)F)ccc1-n1cnc(C)c1 (single isomer, unassigned; (+)) [Example 373, (+)-2-{(E)-2-[6-methoxy-5-(4-methyl-1H-imidazol-1-yl)pyridin-2-yl]vinyl}-5-methyl-4-(2-trifluoromethylphenyl)-4,5,6,7-tetrahydro-[1,2,4]triazolo[1,5-a]pyrimidine]
- IC50: 29 nM

Structure (SMILES): COc1cc(/C=C/c2nc3n(n2)CCCC3C2CCCN2Cc2ccccc2)ccc1-n1cnc(C)c1 (single isomer, unassigned) [Example 133, 8-(1-benzylpyrrolidin-2-yl)-2-{(E)-2-[3-methoxy-4-(4-methyl-1H-imidazol-1-yl)phenyl]vinyl}-5,6,7,8-tetrahydro[1,2,4]triazolo[1,5-a]pyridine]
- IC50: 65 nM

Structure (SMILES): COc1nc(/C=C/c2nc3n(n2)CCCC3c2cc(F)ccc2C(F)(F)F)ccc1-n1cnc(C)c1 (single isomer, unassigned) [Example 329, (−)-8-(5-fluoro-2-trifluoromethylphenyl)-2-{(E)-2-[6-methoxy-5-(4-methyl-1H-imidazol-1-yl)pyridin-2-yl]vinyl}-5,6,7,8-tetrahydro-[1,2,4]triazolo[1,5-a]pyridine]
- IC50: 17 nM

Structure (SMILES): COc1nc(/C=C/c2nc3n(n2)CCC[C@H]3c2ccc(F)cc2)ccc1-n1cnc(C)c1 (single isomer, unassigned) [Example 173, (−)-8-(4-fluorophenyl)-2-{(E)-2-[6-methoxy-5-(4-methyl-1H-imidazol-1-yl)pyridin-2-yl]vinyl}-5,6,7,8-tetrahydro-[1,2,4]triazolo[1,5-a]pyridine]
- IC50: 37 nM

Structure (SMILES): COc1nc(/C=C/c2nc3n(n2)CCC[C@@H]3c2cccc(F)c2C)ccc1-n1cnc(C)c1 (single isomer, unassigned) [Example 333, (−)-8-(3-fluoro-2-methylphenyl)-2-{(E)-2-[6-methoxy-5-(4-methyl-1H-imidazol-1-yl)pyridin-2-yl]vinyl}-5,6,7,8-tetrahydro-[1,2,4]triazolo[1,5-a]pyridine]
- IC50: 10 nM

Structure (SMILES): COc1cc(/C=C/c2nc3n(n2)CCCC3(O)c2ccc(C(C)C)cc2)ccc1-n1cnc(C)c1 (single isomer, unassigned) [Example 55, (−)-8-(4-isopropylphenyl)-2-{(E)-2-[3-methoxy-4-(4-methyl-1H-imidazol-1-yl)phenyl]vinyl}-5,6,7,8-tetrahydro[1,2,4]triazolo[1,5-a]pyridin-8-ol]
- IC50: 28 nM

Structure (SMILES): COc1nc(/C=C/c2nc3n(n2)CCC[C@@H]3c2ccccc2C)ccc1-n1cnc(C)c1 (single isomer, unassigned) [Example 319, (−)-2-{(E)-2-[6-methoxy-5-(4-methyl-1H-imidazol-1-yl)pyridin-2-yl]vinyl}-8-(o-tolyl)-5,6,7,8-tetrahydro[1,2,4]triazolo[1,5-a]pyridine]
- IC50: 15 nM

Structure (SMILES): COc1nc(/C=C/c2nc3n(n2)CCOC3c2ccccc2C(F)(F)F)ccc1-n1cnc(C)c1 (single isomer, unassigned; (-)) [Example 368, (−)-2-{(E)-2-[6-methoxy-5-(4-methyl-1H-imidazol-1-yl)pyridin-2-yl]vinyl}-8-(2-trifluoromethylphenyl)-5,6-dihydro-8H-[1,2,4]triazolo[5,1-c][1,4]oxazine]
- IC50: 25 nM

Structure (SMILES): COc1nc(/C=C/c2nc3n(n2)CCCC3c2cccc3ccccc23)ccc1-n1cnc(C)c1 (single isomer, unassigned) [Example 199, (+)-2-{(E)-2-[6-methoxy-5-(4-methyl-1H-imidazol-1-yl)pyridin-2-yl]vinyl}-8-(naphthalen-1-yl)-5,6,7,8-tetrahydro-[1,2,4]triazolo[1,5-a]pyridine]
- IC50: 23 nM

Structure (SMILES): COc1cc(/C=C/c2nc3n(n2)CCC[C@H]3c2ccc(F)c(F)c2)cnc1-n1cnc(C)c1 (single isomer, unassigned) [Example 218, (−)-8-(3,4-difluorophenyl)-2-{(E)-2-[5-methoxy-6-(4-methyl-1H-imidazol-1-yl)pyridin-3-yl]vinyl}-5,6,7,8-tetrahydro-[1,2,4]triazolo[1,5-a]pyridine]
- IC50: 69 nM

Structure (SMILES): COc1nc(/C=C/c2nc3n(n2)CC[C@H]3c2cc(F)ccc2C(F)(F)F)ccc1-n1cnc(C)c1 [Example 392, (S)-7-(5-fluoro-2-trifluoromethylphenyl)-2-{(E)-2-[6-methoxy-5-(4-methyl-1H-imidazol-1-yl)pyridin-2-yl]vinyl}-6,7-dihydro-5H-pyrrolo[1,2-b][1,2,4]triazole]
- IC50: 22 nM

Structure (SMILES): COc1nc(/C=C/c2nc3n(n2)CC[C@@H](C)N3c2ccc(F)cc2F)ccc1-n1cnc(C)c1 [Example 371, (R)-4-(2,4-difluorophenyl)-2-{(E)-2-[6-methoxy-5-(4-methyl-1H-imidazol-1-yl)pyridin-2-yl]vinyl}-5-methyl-4,5,6,7-tetrahydro-[1,2,4]triazolo[1,5-a]pyrimidine]
- IC50: 27 nM

Structure (SMILES): COc1nc(/C=C/c2nc3n(n2)CCCC3c2cccc(F)c2)ccc1-n1cnc(C)c1 (single isomer, unassigned) [Example 189, (−)-8-(3-fluorophenyl)-2-{(E)-2-[6-methoxy-5-(4-methyl-1H-imidazol-1-yl)pyridin-2-yl]vinyl}-5,6,7,8-tetrahydro[1,2,4]triazolo[1,5-a]pyridine]
- IC50: 43 nM

Structure (SMILES): COc1nc(/C=C/c2nc3n(n2)CCC3c2cc(F)cc(F)c2)ccc1-n1cnc(C)c1 (single isomer, unassigned; (-)) [Example 384, (−)-7-(3,5-difluorophenyl)-2-{(E)-2-[6-methoxy-5-(4-methyl-1H-imidazol-1-yl)pyridin-2-yl]vinyl}-6,7-dihydro-5H-pyrrolo[1,2-b][1,2,4]triazole]
- IC50: 36 nM

Structure (SMILES): COc1cc(/C=C/c2nc3n(n2)CCC[C@H]3c2ccc(F)cc2)cnc1-n1cnc(C)c1 (single isomer, unassigned) [Example 212, (−)-8-(4-fluorophenyl)-2-{(E)-2-[5-methoxy-6-(4-methyl-1H-imidazol-1-yl)pyridin-3-yl]vinyl}-5,6,7,8-tetrahydro-[1,2,4]triazolo[1,5-a]pyridine]
- IC50: 100 nM

Structure (SMILES): COc1nc(/C=C/c2nc3n(n2)CCCC3c2cc(F)cc(F)c2)ccc1-n1cnc(C)c1 (single isomer, unassigned; (-)) [Example 365, (−)-8-(3,5-difluorophenyl)-2-{(E)-2-[6-methoxy-5-(4-methyl-1H-imidazol-1-yl)pyridin-2-yl]vinyl}-5,6,7,8-tetrahydro-[1,2,4]triazolo[1,5-a]pyridine]
- IC50: 21 nM

Structure (SMILES): COc1nc(/C=C/c2nc3n(n2)CCOC3c2ccc(Cl)cc2)ccc1-n1cnc(C)c1 (single isomer, unassigned; (-)) [Example 262, (−)-8-(4-chlorophenyl)-2-{(E)-2-[6-methoxy-5-(4-methyl-1H-imidazol-1-yl)pyridin-2-yl]vinyl}-5,6-dihydro-8H-[1,2,4]triazolo[5,1-c][1,4]oxazine]
- IC50: 74 nM

Structure (SMILES): COc1nc(/C=C/c2nc3n(n2)CC[C@H]3c2ccccc2)ccc1-n1cnc(C)c1 [Example 376, (S)-2-{(E)-2-[6-methoxy-5-(4-methyl-1H-imidazol-1-yl)pyridin-2-yl]vinyl}-7-phenyl-6,7-dihydro-5H-pyrrolo[1,2-b][1,2,4]triazole]
- IC50: 28 nM
